Counter-ions that a name gives are not always drawn.
Target: T1, T1R2/T1R3 taste receptor (Homo sapiens, UniProt Q7RTX0+Q8TE23)
T1 sequence (Q8TE23 20-839): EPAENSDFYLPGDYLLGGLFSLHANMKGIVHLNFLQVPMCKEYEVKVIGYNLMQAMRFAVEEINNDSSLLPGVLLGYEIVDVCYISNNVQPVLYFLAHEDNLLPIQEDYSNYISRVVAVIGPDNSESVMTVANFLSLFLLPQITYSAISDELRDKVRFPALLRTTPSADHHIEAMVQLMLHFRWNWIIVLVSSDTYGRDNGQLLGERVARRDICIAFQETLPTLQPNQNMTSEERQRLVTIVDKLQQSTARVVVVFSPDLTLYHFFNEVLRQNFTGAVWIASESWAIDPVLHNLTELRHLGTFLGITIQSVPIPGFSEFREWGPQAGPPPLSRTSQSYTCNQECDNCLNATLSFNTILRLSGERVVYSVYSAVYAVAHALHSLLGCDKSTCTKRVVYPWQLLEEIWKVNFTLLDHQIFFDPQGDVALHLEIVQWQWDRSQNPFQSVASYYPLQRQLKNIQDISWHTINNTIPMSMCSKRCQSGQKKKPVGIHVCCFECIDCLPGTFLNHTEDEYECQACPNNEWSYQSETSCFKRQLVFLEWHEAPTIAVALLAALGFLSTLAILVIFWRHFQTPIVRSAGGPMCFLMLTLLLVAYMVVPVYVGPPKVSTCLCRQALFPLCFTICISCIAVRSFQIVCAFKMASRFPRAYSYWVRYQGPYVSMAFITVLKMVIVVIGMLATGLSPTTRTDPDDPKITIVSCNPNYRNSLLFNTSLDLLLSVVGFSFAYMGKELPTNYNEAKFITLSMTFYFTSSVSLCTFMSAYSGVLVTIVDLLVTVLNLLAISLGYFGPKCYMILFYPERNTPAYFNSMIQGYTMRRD
T1 sequence (Q7RTX0 21-852): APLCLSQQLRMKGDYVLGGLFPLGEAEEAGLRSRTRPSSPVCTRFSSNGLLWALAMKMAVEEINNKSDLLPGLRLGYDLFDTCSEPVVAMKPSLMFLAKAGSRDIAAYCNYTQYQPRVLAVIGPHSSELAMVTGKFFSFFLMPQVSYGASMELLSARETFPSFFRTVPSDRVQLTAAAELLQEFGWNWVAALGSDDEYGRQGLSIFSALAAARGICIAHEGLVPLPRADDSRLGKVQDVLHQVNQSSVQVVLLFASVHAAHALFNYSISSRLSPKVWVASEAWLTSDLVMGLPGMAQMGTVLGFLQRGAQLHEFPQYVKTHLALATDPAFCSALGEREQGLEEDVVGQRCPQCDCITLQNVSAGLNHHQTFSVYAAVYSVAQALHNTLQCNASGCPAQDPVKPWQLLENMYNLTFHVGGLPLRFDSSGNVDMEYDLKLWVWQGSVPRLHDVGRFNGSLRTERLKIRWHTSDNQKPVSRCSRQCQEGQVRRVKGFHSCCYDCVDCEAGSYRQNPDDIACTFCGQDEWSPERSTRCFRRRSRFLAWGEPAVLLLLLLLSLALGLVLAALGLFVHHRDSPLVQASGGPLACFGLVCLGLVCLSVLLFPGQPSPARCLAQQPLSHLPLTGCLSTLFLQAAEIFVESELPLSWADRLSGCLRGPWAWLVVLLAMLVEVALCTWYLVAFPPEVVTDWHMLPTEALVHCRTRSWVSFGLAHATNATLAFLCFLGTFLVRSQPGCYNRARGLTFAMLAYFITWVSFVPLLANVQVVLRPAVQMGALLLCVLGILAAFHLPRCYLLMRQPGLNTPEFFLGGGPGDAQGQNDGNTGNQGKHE
Assay: Receptor-based assay: sweetener EC50 enhancement ratio with and without test compound
Format: cell-based
Conditions: for Sucrose Enhancement EC50 Ratio: sweetener sucrose; for Sucralose Enhancement EC50 Ratio: sweetener sucralose; for Fructose Enhancement EC50 Ratio: sweetener fructose
Outline: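 Sweetener (sucrose, sucralose, fructose) EC50 measured alone and with 1, 3, 10 or 50 μM test compound. Enhancement ratio = EC50 without/with compound; A = >1 to <10, B = 10–20, C = >20.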

Row | SMILES | Sucrose Enhancement EC50 Ratio (1 μM test compound) | Sucralose Enhancement EC50 Ratio (3 μM test compound) | Sucrose Enhancement EC50 Ratio (3 μM test compound) | Sucralose Enhancement EC50 Ratio (10 μM test compound) | Sucrose Enhancement EC50 Ratio (10 μM test compound) | Fructose Enhancement EC50 Ratio (10 μM test compound) | Fructose Enhancement EC50 Ratio (50 μM test compound)
1 | Cc1nc2cccc(O[C@H]3CC[C@H](Nc4ccccn4)CC3)c2c(N)c1C(=O)O [Compound 701, 4-Amino-2-methyl-5-((trans-4-(pyridin-2-ylamino)cyclohexyl)oxy) quinoline-3-carboxylic acid] | A (an enhancement ratio of greater than 1 and less than 10) | C (an enhancement ratio greater than 20) | B (an enhancement ratio from 10 to 20) | C (an enhancement ratio greater than 20) | B (an enhancement ratio from 10 to 20) |  | 
2 | Cc1cc(C)nc(N[C@H]2CC[C@H](Oc3cccc4nc(C)c(C(=O)O)c(N)c34)CC2)n1 [Compound 702, 4-Amino-5-((trans-4-((4,6-dimethylpyrimidin-2-yl)amino)cyclohexyl)oxy)-2-methylquinoline-3-carboxylic (HCl)] | A (an enhancement ratio of greater than 1 and less than 10) | A (an enhancement ratio of greater than 1 and less than 10) | A (an enhancement ratio of greater than 1 and less than 10) | B (an enhancement ratio from 10 to 20) | A (an enhancement ratio of greater than 1 and less than 10) |  | 
3 | COc1cnc(N[C@H]2CC[C@H](Oc3cccc4nc(C)c(C(=O)O)c(N)c34)CC2)nc1 [Compound 703] | A (an enhancement ratio of greater than 1 and less than 10) | B (an enhancement ratio from 10 to 20) | A (an enhancement ratio of greater than 1 and less than 10) | B (an enhancement ratio from 10 to 20) | B (an enhancement ratio from 10 to 20) | A (an enhancement ratio of greater than 1 and less than 10) | 
4 | Cc1nc2cccc(O[C@H]3CC[C@H](Nc4ncc(F)cn4)CC3)c2c(N)c1C(=O)O [Compound 704] | A (an enhancement ratio of greater than 1 and less than 10) | B (an enhancement ratio from 10 to 20) | A (an enhancement ratio of greater than 1 and less than 10) | B (an enhancement ratio from 10 to 20) | B (an enhancement ratio from 10 to 20) | A (an enhancement ratio of greater than 1 and less than 10) | A (an enhancement ratio of greater than 1 and less than 10)
5 | Cc1cnc(N[C@H]2CC[C@H](Oc3cccc4nc(C)c(C(=O)O)c(N)c34)CC2)nc1 [Compound 705] | A (an enhancement ratio of greater than 1 and less than 10) | A (an enhancement ratio of greater than 1 and less than 10) | B (an enhancement ratio from 10 to 20) | B (an enhancement ratio from 10 to 20) | B (an enhancement ratio from 10 to 20) | A (an enhancement ratio of greater than 1 and less than 10) | 

From patent US11339128B2 (Firmenich Incorporated, priority 2014, dated 2022)
